± gives the expanded uncertainty stated by the source.
Assay: molar heat capacity at constant volume
Conditions: Vacuum adiabatic calorimetry

Cc1ccccc1 [toluene]
Fluid (supercritical or subcritical phases)
Conditions | molar heat capacity at constant volume [J/K/mol]
386.9 K, Mass density=777.8 kg/m3 | 147.79 ± 2.9
387.48 K, Mass density=777.8 kg/m3 | 147.7 ± 2.9
387.84 K, Mass density=777.8 kg/m3 | 146.41 ± 2.9
388.65 K, Mass density=777.8 kg/m3 | 146.96 ± 2.9
392.83 K, Mass density=777.8 kg/m3 | 145.67 ± 2.9
393.6 K, Mass density=777.8 kg/m3 | 144.01 ± 2.9
399.34 K, Mass density=777.8 kg/m3 | 146.68 ± 2.9
411.33 K, Mass density=777.8 kg/m3 | 148.9 ± 2.9
413.55 K, Mass density=777.8 kg/m3 | 149.08 ± 2.9
545.3 K, Mass density=555.25 kg/m3 | 189.99 ± 3.8
545.51 K, Mass density=555.25 kg/m3 | 189.07 ± 3.8
545.84 K, Mass density=555.25 kg/m3 | 188.79 ± 3.8
545.93 K, Mass density=555.25 kg/m3 | 189.44 ± 3.8
548.72 K, Mass density=555.25 kg/m3 | 187.41 ± 3.8
549.32 K, Mass density=555.25 kg/m3 | 189.25 ± 3.8
550.41 K, Mass density=555.25 kg/m3 | 188.52 ± 3.8
589.54 K, Mass density=214.64 kg/m3 | 349.57 ± 7.7
589.66 K, Mass density=214.64 kg/m3 | 307.47 ± 6.4
589.72 K, Mass density=214.64 kg/m3 | 299.45 ± 6.2
589.84 K, Mass density=214.64 kg/m3 | 280.47 ± 6
590.03 K, Mass density=214.64 kg/m3 | 271.9 ± 5.8
590.09 K, Mass density=214.64 kg/m3 | 264.9 ± 5.7
590.51 K, Mass density=214.64 kg/m3 | 250.8 ± 5.2
590.58 K, Mass density=214.64 kg/m3 | 252.92 ± 5.2

molar heat capacity at constant volume [J/K/mol]
Conditions | 386.9 K | 545.3 K | 589.54 K | 591.72 K | 591.84 K | 591.85 K | 591.87 K | 591.88 K
Gas | – | – | 349.57 ± 7 | 385.6 ± 9.2 | 425.4 ± 9.9 | – | – | –
Liquid | 147.79 ± 2.9 | 189.99 ± 3.8 | – | – | – | 331.51 ± 6.6 | 422.18 ± 8.5 | 442.26 ± 8.8
